According to patent US20160058712A1, “3-HYDROXYPTEROSTILBENE AND THERAPEUTIC APPLICATIONS THEREOF” (priority 2014, published 2016):

Legend:
COLO 205 cells [1] = assay: ROS production by DCFHDA flow cytometry; format: cell-based, human; details: COLO 205, 50 μM, 15 min; from 114
Protocol: For mitochondrial membrane potential and ROS production, COLO 205 cells were treated as described under Example III for 15 min, and then DiOC6 [3,3′-dihexyloxacarbocyanine iodide] (40 nM) or DCFHDA [2′,7′-dichlorodihydrofluorescein diacetate] (20 μM) was added to the medium for a further 30 min at 37° C. After washing with PBS, the fluorescence intensity was determined by FAC Scan cytometry. The DiOC6 fluorescence intensity shifted to the left from 224 to 117 and 75 in pterostilbene and 3-HPT induced apoptotic COLO 205 cells, respectively. […] The role of ROS in the induction of apoptosis is well recognized. […] The imbalance of ROS concentrations could play an important role as an early mediator in 3-HPT induced apoptosis.

COLO 205 cells [2] = assay: Autophagy (acidic vesicular organelles) by acridine orange staining; format: cell-based, human; details: 24 h
Protocol: Autophagy induction in COLO 205 cells treated with 3-HPT and pterostilbene was detected by Acridine Orange (AO) staining. After 24 h treatment, COLO 205 cells were washed with phosphate buffered saline (PBS), suspended in PBS and stained with 1 μg/mL AO of 20 min. Photographs were obtained with a fluorescence microscope (Axioscop, Carl Zeiss, Thomwood, N.Y.) equipped with a mercury 100 W lamp, 490 nm Bandpass blue excitation filters, a 500 nm dichroic mirror and a 515 nm long pass barrier filter. For quantification of AVOs by flow cytometry, cells were treated as described under EXAMPLE II and stained with AO for 15 min and were analyzed by FACScan laser flow cytometer and CellQuest software.

COLO 205 cells [3] = assay: MTT cell viability assay, COLO 205; format: cell-based; details: Homo sapiens, COLO205, MTT, 24 h
Protocol: The human colon cancer cell lines COLO 205, HCT116 and HT29 were purchased from the American Type Culture Collection (Rockville, Md.). Cell lines were grown in RPMI1640 supplemented with 10% heat inactivated fetal bovine serum (GIBCO BRL, Grand Island, N.Y.), 100 units/mL of penicillin, 100 μg/mL of streptomycin), 2 mM L-glutamine (GIBCO BRL, Grand Island, N.Y.), and were kept at 37° C. in a humidified 5% CO2 incubator. Pterostilbene and 3-HPT were dissolved in dimethyl sulfoxide (DMSO, as final concentration of 0.05%). Cells were treated with 0.05% DMSO as vehicle control.
Cell viability was assayed by 3(4,5-dimethylthiazol-2-yl)-2,5-diphenyltetrazolium bromide (MTT). Briefly. COLO 205, HCT116 and HT29 cells were plated at a density of 2×10^2 cells/mL into 96 well plates. After overnight growth, cells were treated with a series of concentrations of pterostilbene or 3-hydroxypterostilbene for 24 h. The final concentrations of DMSO in the culture medium were <0.05%. At the end of treatment, 0.2% MTT was added and cells were incubated for a further 4 h. Cell viability was determined by scanning with an ELISA reader with a 570 nm filter.

[4] = system: caspase 3, 8 and 9 in PC-3 cells; assay: Fluorometric caspase 3, 8 and 9 activity in PC-3 cells; format: cell-based, human; details: PC-3, 0-20 μM, 48 hours
[5] = system: multi drug resistant and BCR-ABL-expressing leukemia cells; details: Tolomeo et al. 2005; cited from earlier work

COc1cc(/C=C/c2ccc(O)c(O)c2)cc(OC)c1 [3-hydroxypterostilbene, 3,4-dihydroxy-3′,5′-dimethoxy-trans-stilbene]
mean DCFHDA fluorescence intensity (ROS) (COLO 205 cells [1]): 38
appearance of AVO (fluorescence microscopy) (COLO 205 cells [2]; COLO 205, 50 μM): marked appearance of AVO than pterostilbene
red fluorescence of cells with AVOs (flow cytometry) (COLO 205 cells [2]; COLO 205, 25 and 50 μM): significantly increased after treatment with 3-HPT in a dose dependent manner
IC50 (COLO 205 cells [3]): 9 ± 0.2 µM
caspases activity (caspase 3, 8 and 9) [4]: initiation of caspases activity
apoptosis induction in leukemia cells [5]: effective apoptosis-inducing agents
